Among the data in ChEMBL document CHEMBL2203160, “PPARγ agonist from Chromolaena odorata” (J Nat Prod, 2012) are IC50 values, retold here.

Usually IC50 stands for the midpoint of a concentration-inhibition curve. Higher therefore signals weaker potency in that assay.

One test concerns PC-6. The test is described as follows: Cytotoxicity against human PC6 cells by MTT assay. The test is classed as functional, cell-based.
Test [1] can be described thus: Cytotoxicity against human U251SP cells by MTT assay. The test is classed as functional, cell-based. For orientation: Tetrazolium assays rely on reduction of a dye to a coloured formazan, in cell work by metabolically active cells.

In turn, `COc1c(O)cc2c(c1OC)C(=O)c1ccc(C)cc1C2=O` came in with a half-inhibitory concentration (IC50) with PC-6 of 52.2 µM. Take `COc1cc(O)c(C(=O)/C=C/c2ccc(O)cc2)c(OC)c1OC`: it took 92.7 µM to reach half-maximal inhibition in test [1] (IC50).
